Test results published in PubChem BioAssay AID248 (DTP/NCI, 2004).
Where “and” joins values, the source holds several entries; their conditions need not be identical. Equal entries are not always repeated. Toxic doses and inconclusive results are not listed.

Test system: L1210 leukemia ip in BDF1 mice, survival T/C
Assay: NCI In Vivo Anticancer Drug Screen. Data for tumor model L1210 Leukemia (intraperitoneal) in B6D2F1 (BDF1) mice
Details: higher = longer survival
Procedure, shortened: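 Survival endpoint. Drug-treated group vs vehicle group, expressed as T divided by C. Tumor passaged by transplantation.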

[1] = endpoint: mean survival time, dose: 100.0 mg/kg/injection, schedule: Q01DX009 (ip), vehicle: Klucel (hydroxypropylcellulose) (HPC)
[2] = endpoint: mean survival time, dose: 200.0 mg/kg/injection, schedule: Q01DX009 (ip), vehicle: Klucel (hydroxypropylcellulose) (HPC)
[3] = endpoint: mean survival time, dose: 400.0 mg/kg/injection, schedule: Q01DX009 (ip), vehicle: Klucel (hydroxypropylcellulose) (HPC)
[4] = endpoint: mean survival time, dose: 100.0 mg/kg/injection, schedule: Q01DX001 (ip), vehicle: saline
[5] = endpoint: mean survival time, dose: 200.0 mg/kg/injection, schedule: Q01DX001 (ip), vehicle: saline
[6] = endpoint: mean survival time, dose: 400.0 mg/kg/injection, schedule: Q01DX001 (ip), vehicle: saline
[7] = endpoint: mean survival time, dose: 100.0 mg/kg/injection, schedule: Q04DX002 (ip), vehicle: Klucel (hydroxypropylcellulose) (HPC)
[8] = endpoint: mean survival time, dose: 200.0 mg/kg/injection, schedule: Q04DX002 (ip), vehicle: Klucel (hydroxypropylcellulose) (HPC)
[9] = endpoint: mean survival time, dose: 100.0 mg/kg/injection, schedule: Q04DX003 (ip), vehicle: saline
[10] = endpoint: mean survival time, dose: 200.0 mg/kg/injection, schedule: Q04DX003 (ip), vehicle: saline
[11] = endpoint: mean survival time, dose: 400.0 mg/kg/injection, schedule: Q04DX003 (ip), vehicle: saline
[12] = endpoint: mean survival time, dose: 100.0 mg/kg/injection, schedule: Q04DX003 (ip), vehicle: Klucel (hydroxypropylcellulose) (HPC)
[13] = endpoint: mean survival time, dose: 200.0 mg/kg/injection, schedule: Q04DX003 (ip), vehicle: Klucel (hydroxypropylcellulose) (HPC)
[14] = endpoint: mean survival time, dose: 400.0 mg/kg/injection, schedule: Q04DX003 (ip), vehicle: Klucel (hydroxypropylcellulose) (HPC)

CC(=O)C(C(c1ccccc1)N1CCCc2ccccc21)N1CCOCC1 (stereo unspecified)
T/C [1]: 96 % of control
T/C [2]: 91 % of control
T/C [3]: 98 % of control

Cc1cn(C2OC(C(O)C(N)=O)C(O)C2O)c(=O)[nH]c1=O (stereo unspecified)
T/C [4]: 97 % of control
T/C [5]: 114 % of control
T/C [6]: 101 % of control

Cc1nc2nc(N)nc(N)c2nc1CNc1ccc(C(=O)NC(CCC(=O)O)C(=O)O)cc1 (stereo unspecified)
T/C (endpoint: median survival time, dose: 0.39 mg/kg/injection, schedule: Q01DX009 (ip), vehicle: other): 100 % of control
T/C (endpoint: median survival time, dose: 0.65 mg/kg/injection, schedule: Q01DX009 (ip), vehicle: other): 100 % of control
T/C (endpoint: median survival time, dose: 1.08 mg/kg/injection, schedule: Q01DX009 (ip), vehicle: other): 100 % of control
T/C (endpoint: median survival time, dose: 1.8 mg/kg/injection, schedule: Q01DX009 (ip), vehicle: other): 100 % of control
T/C (endpoint: median survival time, dose: 5.0 mg/kg/injection, schedule: Q01DX009 (ip), vehicle: other): 100 % of control
T/C (endpoint: median survival time, dose: 14.0 mg/kg/injection, schedule: Q01DX009 (ip), vehicle: other): 110 % of control
T/C (endpoint: median survival time, dose: 108.0 mg/kg/injection, schedule: Q01DX009 (ip), vehicle: other): 100 % of control
T/C (endpoint: median survival time, dose: 180.0 mg/kg/injection, schedule: Q01DX009 (ip), vehicle: other): 105 % of control
T/C (endpoint: median survival time, dose: 300.0 mg/kg/injection, schedule: Q01DX009 (ip), vehicle: other): 105 % of control

Cc1cc([N+](=O)[O-])c(Nc2ccc(F)cc2)c([N+](=O)[O-])c1
T/C (endpoint: mean survival time, dose: 100.0 mg/kg/injection, schedule: Q01DX009 (ip), vehicle: saline with Tween-80): 97 % of control
T/C (endpoint: mean survival time, dose: 100.0 mg/kg/injection, schedule: Q04DX003 (ip), vehicle: saline with Tween-80): 105 % of control
T/C (endpoint: mean survival time, dose: 200.0 mg/kg/injection, schedule: Q01DX009 (ip), vehicle: saline with Tween-80): 92 % of control
T/C (endpoint: mean survival time, dose: 200.0 mg/kg/injection, schedule: Q04DX003 (ip), vehicle: saline with Tween-80): 97 % of control
T/C (endpoint: mean survival time, dose: 400.0 mg/kg/injection, schedule: Q01DX009 (ip), vehicle: saline with Tween-80): 94 % of control
T/C (endpoint: mean survival time, dose: 400.0 mg/kg/injection, schedule: Q04DX003 (ip), vehicle: saline with Tween-80): 100 % of control

CC(=O)O/N=C\C(C)=N\OC(C)=O
T/C (endpoint: mean survival time, dose: 15.0 mg/kg/injection, schedule: Q01DX Z (ip), vehicle: saline): 109 % of control
T/C (endpoint: mean survival time, dose: 30.0 mg/kg/injection, schedule: Q01DX Z (ip), vehicle: saline): 109 % of control
T/C (endpoint: mean survival time, dose: 60.0 mg/kg/injection, schedule: Q01DX Z (ip), vehicle: saline): 107 % of control
T/C (endpoint: mean survival time, dose: 120.0 mg/kg/injection, schedule: Q01DX Z (ip), vehicle: saline): 107 % of control

S=C(Nc1ccc(Cl)cc1)Nc1ccc(-c2ccc(NC(=S)Nc3ccc(Cl)cc3)cc2)cc1
T/C [7]: 107 % of control
T/C [8]: 100 % of control
T/C (endpoint: mean survival time, dose: 400.0 mg/kg/injection, schedule: Q04DX002 (ip), vehicle: Klucel (hydroxypropylcellulose) (HPC)): 89 % of control

Cc1nnnn1C
T/C [4]: 95 % of control
T/C [9]: 105 % of control
T/C [5]: 108 % of control
T/C [10]: 107 % of control
T/C [6]: 97 % of control
T/C [11]: 88 % of control

Nc1ccc(C(=O)Oc2ccccc2)c(O)c1
T/C [12]: 95 % of control
T/C [13]: 93 % of control
T/C [14]: 95 % of control

Cc1c(C2=CC(=O)c3ccccc3C2=O)[nH]c2ccccc12
T/C (endpoint: mean survival time, dose: 50.0 mg/kg/injection, schedule: Q01DX001 (ip), vehicle: other): 93 % of control
T/C (endpoint: mean survival time, dose: 100.0 mg/kg/injection, schedule: Q01DX001 (ip), vehicle: other): 91 % of control
T/C (endpoint: mean survival time, dose: 200.0 mg/kg/injection, schedule: Q01DX001 (ip), vehicle: other): 102 % of control
T/C (endpoint: mean survival time, dose: 400.0 mg/kg/injection, schedule: Q01DX001 (ip), vehicle: other): 106 % of control

O=C1c2cccc3cc([N+](=O)[O-])cc(c23)C(=O)N1Cc1cccnc1
T/C (endpoint: mean survival time, dose: 100.0 mg/kg/injection, schedule: Q04DX003 (ip), vehicle: carboxymethylcellulose (CMC)): 93 % of control
T/C (endpoint: mean survival time, dose: 200.0 mg/kg/injection, schedule: Q04DX003 (ip), vehicle: carboxymethylcellulose (CMC)): 90 % of control
T/C (endpoint: mean survival time, dose: 400.0 mg/kg/injection, schedule: Q04DX003 (ip), vehicle: carboxymethylcellulose (CMC)): 97 % of control

CC(=O)OCC(I)CC(F)(F)C(F)(F)C(F)(F)F (stereo unspecified)
T/C (endpoint: mean survival time, dose: 100.0 mg/kg/injection, schedule: Q01DX001 (ip), vehicle: saline with Tween-80): 98 % of control
T/C (endpoint: mean survival time, dose: 200.0 mg/kg/injection, schedule: Q01DX001 (ip), vehicle: saline with Tween-80): 103 % of control
T/C (endpoint: mean survival time, dose: 400.0 mg/kg/injection, schedule: Q01DX001 (ip), vehicle: saline with Tween-80): 116 % of control

O=S(=O)(O)c1ccc(Nc2ccccc2)cc1
T/C [1]: 103 % of control and 100 % of control
T/C [12]: 107 % of control and 103 % of control
T/C [2]: 103 % of control and 102 % of control
T/C [13]: 96 % of control and 103 % of control
T/C [3]: 108 % of control and 102 % of control
T/C [14]: 102 % of control and 101 % of control

CC(=O)c1ccc2ccc3cccc4ccc1c2c34
T/C (endpoint: mean survival time, dose: 100.0 mg/kg/injection, schedule: Q04DX002 (ip), vehicle: gum acacia): 96 % of control
T/C (endpoint: mean survival time, dose: 200.0 mg/kg/injection, schedule: Q04DX002 (ip), vehicle: gum acacia): 96 % of control
T/C (endpoint: mean survival time, dose: 400.0 mg/kg/injection, schedule: Q04DX002 (ip), vehicle: gum acacia): 93 % of control

NC(N)=N/N=C(\c1ccc(F)cc1)C1CC1
T/C (endpoint: mean survival time, dose: 15.0 mg/kg/injection, schedule: Q01DX Z (ip), vehicle: methylcellulose (MC)): 94 % of control
T/C (endpoint: mean survival time, dose: 15.0 mg/kg/injection, schedule: Q01DX Z (oral), vehicle: methylcellulose (MC)): 110 % of control
T/C (endpoint: mean survival time, dose: 30.0 mg/kg/injection, schedule: Q01DX Z (ip), vehicle: methylcellulose (MC)): 95 % of control
T/C (endpoint: mean survival time, dose: 30.0 mg/kg/injection, schedule: Q01DX Z (oral), vehicle: methylcellulose (MC)): 105 % of control
T/C (endpoint: mean survival time, dose: 60.0 mg/kg/injection, schedule: Q01DX Z (oral), vehicle: methylcellulose (MC)): 96 % of control
T/C (endpoint: mean survival time, dose: 120.0 mg/kg/injection, schedule: Q01DX Z (oral), vehicle: methylcellulose (MC)): 104 % of control

O=NN(CCCl)C(=O)Nc1ccccc1C(=O)O
T/C (endpoint: mean survival time, dose: 6.0 mg/kg/injection, schedule: Q01DX001 (ip), vehicle: carboxymethylcellulose (CMC)): 121 % of control
T/C (endpoint: mean survival time, dose: 9.0 mg/kg/injection, schedule: Q01DX001 (ip), vehicle: carboxymethylcellulose (CMC)): 156 % of control

COC(=O)c1cc(Cl)cc(C(=O)OC)n1
T/C [9]: 100 % of control
T/C (endpoint: mean survival time, dose: 200.0 mg/kg/injection, schedule: Q01DX009 (ip), vehicle: saline): 94 % of control
T/C [10]: 103 % of control
T/C (endpoint: mean survival time, dose: 400.0 mg/kg/injection, schedule: Q01DX009 (ip), vehicle: saline): 100 % of control
T/C [11]: 99 % of control

O=C(CS(=O)(=O)O)c1ccc(Br)cc1
T/C (endpoint: mean survival time, dose: 100.0 mg/kg/injection, schedule: Q04DX002 (ip), vehicle: saline with Tween-80): 97 % of control
T/C (endpoint: mean survival time, dose: 200.0 mg/kg/injection, schedule: Q04DX002 (ip), vehicle: saline with Tween-80): 97 % of control
T/C (endpoint: mean survival time, dose: 400.0 mg/kg/injection, schedule: Q04DX002 (ip), vehicle: saline with Tween-80): 94 % of control

CC(=O)SCCCON1C(=O)c2ccccc2C1=O
T/C (endpoint: mean survival time, dose: 50.0 mg/kg/injection, schedule: Q01DX001 (ip), vehicle: saline): 100 % of control
T/C [4]: 96 % of control
T/C [5]: 102 % of control
T/C [6]: 102 % of control

O=c1[nH]nc(N2CCOCC2)c(=O)[nH]1
T/C [4]: 104 % of control
T/C [5]: 104 % of control
T/C [6]: 96 % of control

CC1CN(CC2CCCCCCCCCCC2=O)CC(C)O1 (stereo unspecified)
T/C [7]: 116 % of control
T/C [8]: 90 % of control
